Patent US20020052491A1, “Method for the production of 2-chloro-2' -deoxyadenosine (cladribine) and its 3,5-di-O-p-toluoyl derivative” (priority 1999, published 2002)

Tests used:
[1] = test system: Epstein Barr B lymphoblastoid cell lines; assay: in vitro sensitivity, Epstein Barr B lymphoblastoid cell lines; assay type: cell-based; conditions: 50% growth inhibition, no source mark printed, read-out: IC50 (nmol/L)**
Text: (§1) The in vitro effect of cladribine (2-CdA) has been studied on a number of cell lines, showing different degrees of sensitivity, represented by the IC50 value (concentration required to inhibit 50% of growth) on a case-by-case basis.

DAUDI cell line = assay: in vitro sensitivity, DAUDI cell line; assay type: cell-based; conditions: Homo sapiens, 50% growth inhibition, Data Bio Sidus, read-out: IC50 (nmol/L)**
Text: as §1

[2] = test system: Acute lymphoblastic leukemia; conditions: drug concentration required to inhibit 50% of growth, read-out: IC50 (nmol/L)**; cited from earlier work
[3] = test system: Acute myelogenous leukemia; conditions: 50% growth inhibition, read-out: IC50 (nmol/L)**; cited from earlier work
[4] = test system: Chronic lymphocytic leukemia; conditions: 50% growth inhibition, read-out: IC50 (nmol/L)**; cited from earlier work
Hairy cell leukemia = conditions: 50% growth inhibition, read-out: IC50 (nmol/L)**; cited from earlier work
Multiple myeloma cells = conditions: cited from earlier work
Non-Hodgkin's lymphoma = conditions: 50% growth inhibition, read-out: IC50 (nmol/L)**; cited from earlier work
T cells = conditions: 50% growth inhibition, read-out: IC50 (nmol/L)**; cited from earlier work
B cells = conditions: 50% growth inhibition, read-out: IC50 (nmol/L)**; cited from earlier work
Normal bone marrow = conditions: cited from earlier work
myeloid cells = conditions: cited from earlier work
[5] = test system: lymphoblastoid leukemia cells; conditions: 5 nmol/L; cited from earlier work
[6] = test system: cell lines of bone tumors; conditions: in vitro; cited from earlier work
[7] = test system: human melanoma cell lines; conditions: some human melanoma cell lines; cited from earlier work
neuroblastoma cell line = conditions: cited from earlier work
[8] = test system: granulocyte-macrophage colony forming units and erythrocyte burst forming units; conditions: more immature progenitors (granulocyte-macrophage colony forming units and erythrocyte burst forming units); approximately; cited from earlier work
[9] = test system: Mature erythroid colony forming units (mBFU-E); conditions: cited from earlier work
[10] = test system: erythroid colony forming cells (CFU-E); conditions: cited from earlier work
[11] = test system: T lymphocyte colony forming cells; conditions: cited from earlier work
Peripheral lymphocytes = conditions: cited from earlier work
myeloid progenitor cell = conditions: dose-dependent basis; cited from earlier work
[12] = test system: Erythroid progenitor cells; conditions: decreases as maturation state rises; cited from earlier work
[13] = test system: dividing and non-dividing cells; conditions: cited from earlier work
[14] = H-9 proton; cited from earlier work

Nc1nc(Cl)nc2c1ncn2[C@H]1C[C@H](O)[C@@H](CO)O1 [Cladribine, 2-chloro-2′-deoxyadenosine]
IC50 [1]: 200 nmol/L
IC50 (DAUDI cell line): 210 nmol/L
IC50 [2]: 34 nmol/L
IC50 [3]: 20 nmol/L
IC50 [4]: 39 nmol/L
IC50 (Hairy cell leukemia): 31 nmol/L
IC50 (Multiple myeloma cells; Multiple myeloma, 50% growth inhibition, read-out: IC50 (nmol/L)**): 1750 nmol/L
activity on multiple myeloma cells (Multiple myeloma cells; in vitro): low activity
IC50 (Non-Hodgkin's lymphoma): 87 nmol/L
IC50 (T cells): 3 to 338 nmol/L
IC50 (B cells): 6 to 67 nmol/L
granulocyte and macrophage colony formation (Normal bone marrow; 5 nmol/L, normal bone marrow): no effect
IC50 (Normal bone marrow; Normal bone marrow, 50% growth inhibition, read-out: IC50 (nmol/L)**): 15 nmol/L
IC50 (myeloid cells): 5 to 70 nM
thymidine uptake [5]: inhibits
activity on cell lines of bone tumors [6]: low activity
IC37 [7]: 12 to 22 nmol/L
IC50 (neuroblastoma cell line): 60 nM
IC50 [8]: 16 to 20 nM
IC50 [9]: 38 nM
IC50 [10]: 56 nM
concentration needed for a complete inhibition of lymphoid colony formation ([11]; complete inhibition): 1280 nmol/L
T lymphocyte colony forming cells ([11]; dose-dependent basis): inhibits
viability of peripheral lymphocytes (Peripheral lymphocytes; 100 nmol/l during 24 hours, followed by washing): retain viability
cells die (Peripheral lymphocytes; seven-day incubation with 8 nmol/L): 60%
myeloid progenitor cell growth (myeloid progenitor cell): inhibits
sensitivity of erythroid progenitor cells [12]: dose-dependent sensitivity
activity in dividing and non-dividing cells [13]: active

Nc1ncnc2nc[nH]c12 [adenine]
pKa [14]: 9.80
